Values of other authors as cited in CN111214447A, “一种甲磺酸沙芬酰胺固体组合物及其制备方法” (Beijing Wanquan Dezhong Medical Biological Technology Co Ltd, priority 2018, dated 2020).
Converted amounts (≈) assume the structure as drawn.

Settings: aqueous medium, pH=7

SMILES: C[C@H](NCc1ccc(OCc2cccc(F)c2)cc1)C(N)=O [沙芬酰胺, 甲磺酸]
- solubility: 10 µg/mL (≈ 33.1 µM)
